Drawing on PubChem BioAssay AID1918998 (Molecular Pharmacology Branch, DTP, NCI, 2023), this text covers viability, T/C and IC50 for nine compounds.

Each structure is given as a SMILES string. Several values for one entry are separate records, joined by “and”; a condition that tells them apart may be missing. Identical values can stand only once.

In this experiment the test system is 521955-158-R2-J5-PDC complex spheroid growth. Nature of the experiment: Anticancer human tumor 521955-158-R2-J5-PDC patient-derived pancreatic carcinoma cell line growth inhibition [AhR]. As to conditions: for viability, T/C: stronger effect = lower value; for IC50: curve of compound. From the text: Multicellular complex tumor spheroid response to aryl hydrocarbon receptor antagonists in combination with a variety of drugs and investigational agents in selected tumor cell lines
The current study was undertaken to assess response to aryl hydrocarbon receptor antagonists in combination with standard-of-care drugs and investigational agents in solid tumor complex spheroid models. Complex spheroids include a stromal component modeled by human endothelial cells (HUVEC) and fibroblasts modeled by human mesenchymal stem cells (MSCs). The concentration ranges selected for each drug and investigational agent were based upon clinically achievable concentrations if the clinical Cmax of the agent was known.
Compounds. The drugs and investigational agents: BAY 2416964 (NSC825713), GNF351 (NSC835774), CH-223191 (NSC835775), CPI-455 (NSC825282), aza-TdCyd (NSC777586), decitabine (NSC127716), belinostat (NSC758774), entinostat (NSC756642), pevonedistat (NSC761192), tazemetostat (NSC777109), talazoparib (NSC765396), olaparib (NSC753686), selinexor (NSC780203), nedisertib (M3814, NSC802822), bortezomib (NSC756655), venetoclax (NSC766270), doxorubicin (NSC123127), elimusertib (BAY189344, NSC800525), ceralasertib (AZD6738, NSC777638), TAK-243 (NSC785004), alisertib (NSC759677), etoposide (NSC141540), topotecan (NSC609699), eribulin (NSC707389), gemcitabine (NSC613327), carboplatin (NSC241240), cisplatin (NSC119875), and SN-38 (NSC673596) were obtained from the National Cancer Institute (NCI) Developmental Therapeutics Program Chemical Repository (32). The FDA-approved anticancer drug set is available from the Developmental Therapeutics Program at https://dtp.cancer.gov/organization/dscb/obtaining/available plates.htm. […] The stock solutions were prepared in dimethyl sulfoxide (DMSO, Sigma-Aldrich, St. Louis, MO, cat. D2650), except for the platinum compounds which were prepared in saline (Quality Biological, Gaithersburg, MD, cat. 114-055-101), at 800-fold the tested concentration and stored at -70 degrees C prior to their use. All drugs and investigational agents were tested over a range starting from a high concentration at or near the clinical Cmax and decreasing in half-log increments. If the clinical Cmax for an agent had not been determined, the highest concentration tested was 10 microM (Table 1).
Cell Culture. All cells were maintained in an incubator at 37 degrees C and 5% CO2 with 95% humidity. The PDC lines were cultured according to standard operating procedures established by the NCI PDMR (https://pdmr.cancer.gov). Briefly, all PDCs were thawed and cultured in Matrigel-coated flasks prepared with a working solution of 1X Ham's F-12 nutrient mix, without supplementation (Invitrogen, Waltham, MA, cat. 11765054), 100 U/mL penicillin-streptomycin (Invitrogen, cat. 15140122), and 2.5% Matrigel (Corning Inc., Corning, NY, cat. 354248) for the first three passages. All PDCs were cultured in complete DMEM/F-12 media containing advanced DMEM/F-12 (Invitrogen, cat. 12634028), 4.9% defined fetal bovine serum, heat inactivated (HyClone Laboratories Inc., Logan, UT, cat. SH30070.03HI), 389 ng/mL hydrocortisone (Sigma-Aldrich, cat. H4001), 9.7 ng/mL human EGF recombinant protein (Invitrogen, cat. PHG0313), 23.4 microg/mL adenine (Sigma-Aldrich, cat. A2786), 97.3 U/mL penicillin-streptomycin (Invitrogen, cat. 15140122), 1.9 mM L-glutamine (Invitrogen, cat. 25030081), and 9.7 microM Y-27632 dihydrochloride (Tocris Bioscience, Bristol, United Kingdom, cat. 1254). The PDCs were cultured in complete DMEM/F12 media without 10 microM Y-27632 dihydrochloride for at least two passages prior to the screen. The established cell lines NCI-H1341 and […] were cultured in DMEM/F-12, HEPES (Invitrogen, cat. 11330032), 5% defined fetal bovine serum (HyClone Laboratories Inc., cat. SH30070.03), ITS premix universal culture supplement [insulin (5 microg/mL), transferrin (5 microg/mL), and selenious acid (5 ng/mL)] […]
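For viability, T/C in this document: spheroids mix tumor cells with HUVEC endothelium and human MSC stroma; luminescence taken as viability surrogate after a week of drug exposure.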

As a reminder, the viability, T/C is the ratio of treated to control. By IC50 is commonly meant the midpoint of a concentration-inhibition curve. On to `Cn1ncnc1C1c2n[nH]c(=O)c3cc(F)cc(c23)NC1c1ccc(F)cc1` (stereo not drawn), for which the concentration for half-maximal inhibition (IC50) was above 100 nM. The viability, T/C (compound 0.000316 µM) was 106% and 64.7% and 90.7%. Besides, the viability, T/C (compound 0.001 µM) is 103% and 97.9% and 110%. Besides, the viability, T/C (compound 0.00316 µM) is 94.6% and 105% and 89.1%. For the same compound, the viability, T/C (compound 0.01 µM) is 94.8% and 75% and 89.5%. For the setting “compound 0.0316 µM”, the viability, T/C is 85.7% and 73.9% and 97.8%. Also, under “compound 0.1 µM”, the viability, T/C was 84.5% and 74% and 80.7%.

Regarding `NS(=O)(=O)OCC1CC(n2ccc3c(NC4CCc5ccccc54)ncnc32)CC1O` (stereo not drawn), the IC50 was 1330 nM and 598 nM. Further, where the note is “compound 0.0316 µM”, the viability, T/C was 86.2% and 98.4% and 88.1%. The viability, T/C (compound 0.1 µM) is 99.3% and 98.1% and 95.9%. Besides, for the setting “compound 0.316 µM”, the viability, T/C was 83.6% and 87.9% and 66%. The viability, T/C (compound 1 µM) was 54.8% and 54.6% and 36.6%. For the same compound, the viability, T/C (compound 3.16 µM) is 36.5% and 32.9% and 19.3%. Further, the viability, T/C (compound 10 µM) is 30.5% and 21% and 16.8%.

In the case of `Nc1ccccc1NC(=O)c1ccc(CNC(=O)OCc2cccnc2)cc1`, the IC50 is 5150 nM and 5470 nM and 3260 nM. The viability, T/C (compound 0.0316 µM) was 97.7% and 110% and 106%. Moreover, the viability, T/C (compound 0.1 µM) is 123% and 118% and 108%. Besides, the viability, T/C (compound 0.316 µM) is 106% and 127% and 115%. Further, the viability, T/C (compound 1 µM) was 98.9% and 105% and 80%. The viability, T/C (compound 3.16 µM) was 63.6% and 66.5% and 53.9%. For the setting “compound 10 µM”, the viability, T/C was 31.6% and 32.4% and 21.6%.

Take `Nc1ccn(C2OC(CO)C(O)C2(F)F)c(=O)n1` (stereo not drawn): the half-inhibitory concentration (IC50) is 590 nM and 472 nM and 359 nM. For the same compound, under “compound 0.0316 µM”, the viability, T/C was 73.8% and 54.7% and 44.6%. In addition, where the note is “compound 0.1 µM”, the viability, T/C was 79.4% and 73.8% and 60.9%. The viability, T/C (compound 0.316 µM) was 62.2% and 61% and 53.9%. Moreover, under “compound 1 µM”, the viability, T/C was 39.4% and 28.6% and 24.9%. Moreover, under “compound 3.16 µM”, the viability, T/C is 29.8% and 15.9% and 17.8%. Besides, for the setting “compound 10 µM”, the viability, T/C was 28.7% and 13.2% and 15.3%.

With `Nc1ncn(C2CC(O)C(CO)O2)c(=O)n1` (stereo not drawn), the IC50 is 907 nM and 158 nM and 564 nM. Moreover, the viability, T/C (compound 0.00316 µM) was 92.7% and 87.2% and 101%. The viability, T/C (compound 0.01 µM) was 90.8% and 72.2% and 80.4%. Under “compound 0.0316 µM”, the viability, T/C was 88.8% and 87.9% and 88.9%. For the same compound, the viability, T/C (compound 0.1 µM) was 73% and 52.6% and 68.5%. The viability, T/C (compound 0.316 µM) was 65.5% and 53.7% and 63%. The viability, T/C (compound 1 µM) is 48.3% and 38.4% and 39.5%.

For the compound `Nc1ncn(C2CC(O)C(CO)S2)c(=O)n1` (stereo not drawn), the half-inhibitory concentration (IC50) is above 300 nM. Moreover, the viability, T/C (compound 0.000949 µM) was 104% and 88.3% and 99.6%. Besides, for the setting “compound 0.003 µM”, the viability, T/C was 100% and 82.5% and 108%. Also, the viability, T/C (compound 0.00949 µM) was 97.7% and 84.6% and 93%. Further, for the setting “compound 0.03 µM”, the viability, T/C was 93.5% and 74.3% and 75.1%. Moreover, the viability, T/C (compound 0.0949 µM) was 98.7% and 75.1% and 73.7%. For the same compound, under “compound 0.3 µM”, the viability, T/C is 91.9% and 72.8% and 71.8%.

For `O=C(C=Cc1cccc(S(=O)(=O)Nc2ccccc2)c1)NO`, the IC50 is 5550 nM and > 10000 nM and 3320 nM. The viability, T/C (compound 0.0316 µM) is 97.4% and 85.1% and 115%. Besides, the viability, T/C (compound 0.1 µM) was 95.1% and 99.1% and 103%. The viability, T/C (compound 0.316 µM) was 94.2% and 96.2% and 102%. For the setting “compound 1 µM”, the viability, T/C was 88.4% and 104% and 69.3%. In addition, the viability, T/C (compound 3.16 µM) is 59.1% and 79.9% and 54.3%. The viability, T/C (compound 10 µM) was 40.5% and 52.5% and 24.2%.

In the case of `O=C(C=Cn1cnc(-c2cc(C(F)(F)F)cc(C(F)(F)F)c2)n1)NNc1cnccn1`, the IC50 is 256 nM and 163 nM and 48.8 nM. In addition, the viability, T/C (compound 0.00949 µM) is 73.8% and 59.8% (2×). For the same compound, under “compound 0.03 µM”, the viability, T/C is 59.6% and 58.9% and 58.5%. For the setting “compound 0.0949 µM”, the viability, T/C was 50.6% and 38.9% and 40.5%. Moreover, the viability, T/C (compound 0.3 µM) was 55.6% and 49.5% and 37.7%. In addition, where the note is “compound 0.949 µM”, the viability, T/C was 45.3% and 45.9% and 37.6%. Moreover, the viability, T/C (compound 3 µM) is 29.1% and 24.8% and 27.1%.

In the case of `O=C(c1cc(Cc2n[nH]c(=O)c3ccccc23)ccc1F)N1CCN(C(=O)C2CC2)CC1`, the IC50 was above 10000 nM. For the same compound, the viability, T/C (compound 0.0316 µM) was 95.8% and 118% and 96.5%. The viability, T/C (compound 0.1 µM) is 104% and 72.7% and 112%. Moreover, where the note is “compound 0.316 µM”, the viability, T/C was 117% and 80.1% and 96%. The viability, T/C (compound 1 µM) was 89.8% and 84.7% and 92.4%. For the setting “compound 3.16 µM”, the viability, T/C was 104% and 92.2% and 90.4%. In addition, the viability, T/C (compound 10 µM) is 84.5% and 65.4% and 76.3%.
